Experiments:
[1] = molecular target: Cyclin-dependent kinase 4 (Homo sapiens, UniProt P11802); test: In vitro inhibition of Cyclin-dependent kinase 4 was determined.
[2] = molecular target: Cyclin-dependent kinase 2 (Homo sapiens, UniProt P24941); test: In vitro inhibition of Cyclin-dependent kinase 2 was determined.

Cyclin-dependent kinase 4, sequence (P11802 whole entry): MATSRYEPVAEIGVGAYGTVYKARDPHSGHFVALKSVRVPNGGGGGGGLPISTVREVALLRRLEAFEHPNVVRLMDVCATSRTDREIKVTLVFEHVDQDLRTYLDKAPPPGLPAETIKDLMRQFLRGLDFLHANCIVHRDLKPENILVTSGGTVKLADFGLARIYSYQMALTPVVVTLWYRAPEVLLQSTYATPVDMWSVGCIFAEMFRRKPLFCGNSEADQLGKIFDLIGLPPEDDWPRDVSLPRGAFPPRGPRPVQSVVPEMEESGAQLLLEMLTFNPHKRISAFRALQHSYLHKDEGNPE

SMILES	IC50 [1] [µM]	IC50 [2] [µM]
CN(C)CC(O)COc1ccc(Nc2cc(Nc3ccccc3Br)ncn2)cc1 (configuration not stated)	4	28
C#CCN(c1cc(Nc2ccc(OCC(O)CN(C)C)cc2)ncn1)c1cc(Cl)ccc1Cl (configuration not stated)	0.8	19
CN(C)CC(O)COc1ccc(Nc2cc(N(CC#N)c3cc(Cl)ccc3Cl)ncn2)cc1 (configuration not stated)	0.05	1
CN(C)CC(O)COc1ccc(Nc2cc(Nc3cc(C(F)(F)F)ccc3F)ncn2)cc1 (configuration not stated)	6	
CN(C)CC(O)COc1ccc(Nc2cc(Nc3c(F)cccc3F)ncn2)cc1 (configuration not stated)	9	
COc1ccccc1Nc1cc(Nc2ccc(OCC(O)CN(C)C)cc2)ncn1 (configuration not stated)	23	85
CN(C)CC(O)COc1ccc(Nc2cc(N(Cc3ccccc3)c3cc(Cl)ccc3Cl)ncn2)cc1 (configuration not stated)	5	> 100
CN(C)CC(O)COc1ccc(Nc2cc(Nc3ccccc3[N+](=O)[O-])ncn2)cc1 (configuration not stated)	2	25
CN(C)CC(O)COc1ccc(Nc2cc(Nc3ccc(F)cc3F)ncn2)cc1 (configuration not stated)	15	93
CN(C)CC(O)COc1ccc(Nc2cc(N(CCC#N)c3cc(Cl)ccc3Cl)ncn2)cc1 (configuration not stated)	0.5	5
CN(C)CC(O)COc1ccc(Nc2cc(Nc3ccccc3)ncn2)cc1 (configuration not stated)	33	> 100
CN(C)CC(O)COc1ccc(Nc2cc(Nc3ccccc3F)ncn2)cc1 (configuration not stated)	27	> 100
CN(C)CC(O)COc1ccc(Nc2cc(Nc3cc(Cl)ccc3Cl)ncn2)cc1 (configuration not stated)	1	22
Cc1ccccc1Nc1cc(Nc2ccc(OCC(O)CN(C)C)cc2)ncn1 (configuration not stated)	8	39
Cc1ccc(N(CC#N)c2cc(Nc3ccc(OCC(O)CN(C)C)cc3)ncn2)c(Br)c1 (configuration not stated)	0.1	3
CN(C)CC(O)COc1ccc(Nc2cc(Nc3ccccc3Cl)ncn2)cc1 (configuration not stated)	8	95
CC(C)c1ccccc1Nc1cc(Nc2ccc(OCC(O)CN(C)C)cc2)ncn1 (configuration not stated)	18	24

Reference: ChEMBL document CHEMBL1136191, “Cyclin-dependent kinase 4 inhibitors as a treatment for cancer. Part 1: identification and optimisation of substituted 4,6-bis anilino pyrimidines” (Bioorg Med Chem Lett, 2003)
